Laboratory results published in patent US9834750B2, “Cell-to-cell communication without exchange of mediating diffusible factors or using any physical contact between cells” (priority 2013, dated 2017).

Tests used:
[1] = biological target: T1, P2X3 (Mus musculus, UniProt Q3UR32); experiment: ATP-induced [Ca++]i transients in DRG neurons, Fura-2 fluorescence imaging, dish-in-dish culture; type: cell-based
T1 construct: endogenous in cells; host or cells: primary lumbosacral DRG neurons of C57BL/6J mice
T1 sequence (Q3UR32 1-397): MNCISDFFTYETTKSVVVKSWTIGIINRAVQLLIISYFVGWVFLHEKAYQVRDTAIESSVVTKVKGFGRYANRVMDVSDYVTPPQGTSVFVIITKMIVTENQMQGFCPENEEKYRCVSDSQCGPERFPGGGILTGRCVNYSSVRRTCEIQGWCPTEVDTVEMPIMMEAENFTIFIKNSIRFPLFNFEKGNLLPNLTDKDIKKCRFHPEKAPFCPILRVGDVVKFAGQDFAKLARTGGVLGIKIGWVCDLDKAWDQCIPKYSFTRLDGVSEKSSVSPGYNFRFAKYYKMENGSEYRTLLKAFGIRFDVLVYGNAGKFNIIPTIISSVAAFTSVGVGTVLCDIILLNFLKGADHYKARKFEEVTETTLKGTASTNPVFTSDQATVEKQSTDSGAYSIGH
Method: (§1) DRG tissues were obtained from C57BL/6J (Jackson Laboratory; 20 g). Upon arrival, mice were housed in microisolator caging and maintained on 12 hour light/dark cycle in a temperature controlled environment. The mice had access to food and water ad libitum for two weeks. All studies were carried out in accordance with the guidelines of the Institutional Animal Care and Use Committee (IACUC) of Charles R. Drew University of Medicine and Science and the NIH Guide for the Care and Use of Laboratory Animals.
(§2) Lumbosacral adult DRG cells (level L1-S-1) were collected under sterile technique and placed in ice cold medium Dulbecco's Modified Eagle's Medium (DMEM; Sigma-Aldrich, St. Louis, Mo.). Adhering fat and connective tissue were removed and each isolated DRG tissue was minced with sterile scissors and placed immediately in a medium consisting of 5 ml of DMDM containing 0.5 mg/ml of trypsin (Sigma Type III), 1 mg/ml of collagenase (Sigma Type IA) and 0.1 mg/ml of DNAase (Sigma Type III) and all kept at 37 degrees Centigrade for 30 minutes with agitation.
(§3) After dissociation of the ganglia soybean trypsin inhibitor (Sigma Type III) was used to terminate cell dissociation. Cell suspensions were centrifuged for one minute at 1000 rpm and the cell pellets were resuspended in DMEM supplemented with 5% fetal bovine serum (FBS), 2 mM glutamine-penicillin-streptomycin mixture, 1 ug/ml DNAase, and 5 ng/ml of NGF (Sigma).
(§4) Cells were then placed on Matrigel® (Invitrogen, Carlsbad, Calif.) coated 15-mm coverslips (Collaborative Research Co., Bedford Pa.) and kept at 37 degrees Centigrade in a 5% CO2 incubator for 24 hours, then given fresh media and maintained in primary culture until used for experimental procedures.
(§5) Adjacent culture of SH-SY5Y cells with dorsal root ganglion cells occurred as follows. A dish-in-dish system involving a physically separate outer “surround” cell culture well and a separate inner “center” cell culture well was constructed, both wells capable of being managed independently (FIG. 1).
(§6) Mouse DRG neuron cells were seeded in the center well which medium consisted of 5% FBS, 2 mM glutamine-penicillin-streptomycin mixture, 1 ug/mL DNAase, and 5 ng/mL NGF for 24 hours at 5% CO2 and 37 degrees Centigrade. Thus, the two cell populations were co-dish-in-dish cultured, separated but adjacent to each other for 12 hours prior to assessing [Ca++]i response to chemical stimulation. […]
Culture of normal control DRG cells juxtaposed with media containing no cells took place as follows. To establish additional control conditions for assessing the effect of non-diffusible cell-to-cell communication two additional controls were performed: 1) dish-in-dish culture of normal control DRG cells in the center culture well with DRG cell media only in the surround culture well; and 2) dish-in-dish culture of normal control DRG cells in the center culture well with human SH-SY5Y neuroblastoma cell media only in the surround culture well.
(§7) [Ca++]i fluorescence imaging was carried out. DRG neurons were loaded with fluorescent dye […] Fura-2 AM (Invitrogen, Carlsbad, Calif.) for 45 minutes at 37 degrees Centigrade in HBSS supplemented with 20 mM HEPES, pH 7.4. The cover slips were mounted in an RC-26 recording chamber P-4 (Warner Instruments, Hamden, Conn.) and placed on a stage of an Olympus IX51 inverted microscope (Olympus America, Center Valley, Pa.). Observations were made at room temperature (20-23 degrees Centigrade) with a 20× UApo/340 objective. Neurons were bathed and perfused with HBSS buffer using gravity at a rate of 1-2 ml/min.
(§8) Fluorescence intensity at 505 nm with excitation at 334 nm and 380 nm were captured as digital images (sampling rates from 0.1 to 2 seconds). Regions of interest were identified within the soma from which quantitative measurements were made by re-analysis of stored image sequences using Slidebook® Digital Microscopy software. […]

[2] = test system: DRG neurons; experiment: basal [Ca++]i in DRG neurons, Fura-2 fluorescence imaging; type: cell-based, mouse; conditions: E2 100 nM by itself
Method: as §1
Lumbosacral adult DRG cells (level L1-S-1) were collected under sterile technique and placed in ice cold medium Dulbecco's Modified Eagle's Medium (DMEM; Sigma-Aldrich, St. Louis, Mo.). […]
[Ca++]i fluorescence imaging was carried out. […]
as §8, with “software. [Ca++]i was determined by ratiometric method of Fura-2 fluorescence from calibration of a series of buffered Ca++ standards.” for “software.”
All of the data were expressed as the mean±SEM. […]

[3] = biological target: T2, TRPV1 (Mus musculus, UniProt Q704Y3); experiment: capsaicin-induced [Ca++]i transients in DRG neurons, Fura-2 fluorescence imaging, dish-in-dish culture; type: cell-based
T2 construct: endogenous in cells; host or cells: primary lumbosacral DRG neurons of C57BL/6J mice
Method: as §1, §2, §3, §4, §5, §6, §7
Fluorescence intensity at 505 nm with excitation at 334 nm and 380 nm were captured as digital images (sampling rates from 0.1 to 2 seconds). Regions of interest were identified within the soma from which quantitative measurements were made by re-analysis of stored image sequences using Slidebook® Digital Microscopy software. [Ca++]i was determined by ratiometric method of Fura-2 fluorescence from calibration of a series of buffered Ca++ standards. E2 was applied acutely for five minutes onto the experimental chamber.
Repeated application of drugs was achieved by superfusion into individual neurons in a rapid mixing chamber for specific intervals (100-500 ms). […]

[4] = neuroblastoma SH-SY5Y cells in the surround well

T2 sequence (Q704Y3 whole entry): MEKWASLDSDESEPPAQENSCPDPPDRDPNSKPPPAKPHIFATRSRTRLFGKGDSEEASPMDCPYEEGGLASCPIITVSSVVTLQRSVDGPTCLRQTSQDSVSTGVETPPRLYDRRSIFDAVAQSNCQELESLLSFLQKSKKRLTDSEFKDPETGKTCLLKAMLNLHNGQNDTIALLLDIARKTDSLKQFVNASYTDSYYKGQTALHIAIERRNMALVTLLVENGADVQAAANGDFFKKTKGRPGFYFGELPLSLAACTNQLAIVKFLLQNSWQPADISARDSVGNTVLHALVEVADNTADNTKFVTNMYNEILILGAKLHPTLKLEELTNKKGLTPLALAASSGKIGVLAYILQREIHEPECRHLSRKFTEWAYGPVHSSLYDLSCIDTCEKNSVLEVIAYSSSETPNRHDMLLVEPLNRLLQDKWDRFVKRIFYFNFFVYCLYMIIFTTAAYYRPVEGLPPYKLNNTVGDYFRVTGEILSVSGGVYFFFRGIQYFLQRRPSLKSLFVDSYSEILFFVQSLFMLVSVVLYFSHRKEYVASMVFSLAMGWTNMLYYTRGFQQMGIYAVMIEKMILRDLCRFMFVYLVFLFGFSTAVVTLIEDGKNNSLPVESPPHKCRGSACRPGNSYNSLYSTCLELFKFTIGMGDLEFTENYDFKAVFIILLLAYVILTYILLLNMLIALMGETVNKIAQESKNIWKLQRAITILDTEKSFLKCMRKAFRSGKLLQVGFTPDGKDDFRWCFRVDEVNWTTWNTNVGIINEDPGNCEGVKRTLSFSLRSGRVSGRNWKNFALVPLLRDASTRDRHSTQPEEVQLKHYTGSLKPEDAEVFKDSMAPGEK

## Nc1ncnc2c1ncn2[C@@H]1O[C@H](COP(=O)(O)OP(=O)(O)OP(=O)(O)O)[C@@H](O)[C@H]1O [ATP]
[1]; 10 second application of ATP 10 uM, DRG neurons in center and surround wells
  [Ca++]i spikes on ATP application: equal [Ca++]i spikes
[1]; ATP 10 uM, DRG neurons exposed to KCL (50 mM) in the surround well, p<0.001
  ATP-induced [Ca++]i responses, initial stimulation: four fold higher
[1]; ATP 10 uM, SH-SY5Y media without cells in the surround well
  ATP-induced [Ca++]i response with media only in surround well: as occurred under control conditions
[1]; ATP 10 uM, neuroblastoma SH-SY5Y cells in the surround well, n=4
  ATP-induced [Ca++]i response: 193 ± 40.6 nM
[1]; ATP 10 uM, ten minute intervals, DRG neurons exposed to KCL (50 mM) in the surround well, p<0.001
  ATP-induced [Ca++]i responses, subsequent stimulation: significantly reduced
[1]; initial ATP (10 uM) response before E2, DRG cells in surround well (control), mean±SEM, n=5
  ATP-induced [Ca++]i transient: 425.86 ± 49.5 nM
[1]; media with 50 mM KCL without cells in the surround well
  ATP-stimulated [Ca++]i with KCL media only in surround well: as was observed in the control

## O=C(O)CN(CC(=O)O)c1ccccc1OCCOc1ccccc1N(CC(=O)O)CC(=O)O [BAPTA]
[1]; BAPTA 10 mM, Ca++-free media
  effect on ATP-induced [Ca++]i spikes: eliminated

## C[C@]12CC[C@@H]3c4ccc(O)cc4CC[C@H]3[C@@H]1CC[C@@H]2O [E2, 17 β-estradiol]
[2]
  effect on basal [Ca++]i: no effect
[3]; capsaicin 100 nM, E2 100 nM applied first, mean±SEM, n=5, p<0.05
  peak of capsaicin-induced [Ca++]i transients with E2: 175.01 ± 34.8 nM
[3]; [4]
  effect on capsaicin-induced TRPV1-mediated [Ca++]i flux: attenuated
[1]; ATP 10 uM after five-minute incubation with E2 (100 nM), mean±SEM, n=5, p<0.05
  ATP-induced [Ca++]i transient after E2: 171.17 ± 48.9 nM
[1]; E2 100 nM
  reversibility of the effect on ATP-induced [Ca++]i: reversible
[1]; E2 100 nM, control conditions
  effect on ATP-induced [Ca++]i transients: attenuated
[1]; [4]
  effect of E2 on ATP-induced P2X3-mediated [Ca++]i: abolished

## C[C@]12CC[C@@H]3c4ccc(O)cc4C[C@@H](CCCCCCCCC[S+]([O-])CCCC(F)(F)C(F)(F)F)[C@H]3[C@@H]1CC[C@@H]2O (some centres unmarked) [ICI 182,780]
[1]; ICI 182,780 1 nM
  effect on the 17 β-estradiol inhibitory effect on ATP-induced [Ca++]i transients: blocked

## Cc1nc(N=Nc2ccc(S(=O)(=O)O)cc2S(=O)(=O)O)c(COP(=O)(O)O)c(C=O)c1O [PPADS]
[1]; pretreatment with PPADS 5 uM, ATP 10 uM
  effect on ATP-induced [Ca++]i transients: blocked

## COc1cc(CNC(=O)CCCC/C=C/C(C)C)ccc1O [capsaicin]
[3]
  reversibility of the effect of capsaicin: not reversible
[3]; capsaicin 100 nM without E2, control conditions, mean±SEM, n=5
  peak of capsaicin-induced [Ca++]i transients: 399.21 ± 44.5 nM
[3]; capsaicin 100 nM, SH-SY5Y media without cells in the surround well
  capsaicin-induced [Ca++]i response with media only in surround well: as occurred under control conditions
[3]; capsaicin 100 nM, neuroblastoma SH-SY5Y cells in the surround well, n=4
  capsaicin-induced [Ca++]i response: 145.90 ± 28.84 nM
[3]; capsaicin 3 second 100 nM by fast superfusion
  [Ca++]i spikes on capsaicin application: produced [Ca++]i spikes

## Oc1cc2c(cc1O)CN(C(=S)NCCc1ccc(Cl)cc1)CCC2 [capsazepine]
[3]; capsazepine 100 nM, capsaicin 100 nM 3 second
  effect on capsaicin-induced [Ca++]i spikes: almost completely blocked
